Assay results as given in patent US9682976B2, “Protein kinase C inhibitors and uses thereof” (Rigel Pharmaceuticals, Inc., priority 2012, dated 2017).
pEC50: −log10 of the molar value.

What follows are compounds tested on PKC mediated IL-2 production (assay: IL-2 ELISA, human primary T cell, anti CD3+CD28+). Settings: Homo sapiens, T-cell, 24 h, human primary T cells stimulated with αCD3 and αCD28, 24 hours.
Type: cell-based
Outline: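 IL-2 was quantified by ELISA in 24 h supernatants from primary human T cells given a 1 h compound pre-treatment at 37° C. These cells had been expanded from blood mononuclear cells on αCD3/αCD28 with IL-2, and the IL-2 was removed by washing. Stimulation used plate-bound αCD3 ([…]) plus αCD28 (5 μg/ml); the counter assay used PMA (0.5 ng/ml) with ionomycin (0.1 uM) instead.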

SMILES | pEC50
CC1(C)C[C@H](Nc2nc(Nc3ccc4c(c3)-n3nnnc3C3(COC3)O4)ncc2F)C[C@@H]2CCCN21 [Compound 126, N^4-((7R,8aS)-5,5-dimethyloctahydroindolizin-7-yl)-5-fluoro-N^2-(spiro[benzo[b]tetrazolo[1,5-d][1,4]oxazine-4,3′-oxetan]-8-yl)pyrimidine-2,4-diamine] | > 7.00
Cn1nnn(-c2cc(Nc3ncc(F)c(N[C@@H]4C[C@@H]5CCCN5C(C)(C)C4)n3)c(F)cc2C#CCO)c1=O [Compound 96, 1-(5-(4-((7R,8aS)-octahydro-5,5-dimethylindolizin-7-ylamino)-5-fluoropyrimidin-2-ylamino)-4-fluoro-2-(3-hydroxyprop-1-ynyl)phenyl)-4-methyl-1H-tetrazol-5(4H)-one] | > 7.00
Cn1nnn(-c2cc(Nc3ncc(C#N)c(N[C@@H]4C[C@@H]5CCCN5C(C)(C)C4)n3)c(F)cc2OC(C)(C)CO)c1=O [Compound 84, 4-((7R,8aS)-octahydro-5,5-dimethylindolizin-7-ylamino)-2-(4-(1-hydroxy-2-methylpropan-2-yloxy)-2-fluoro-5-(4,5-dihydro-4-methyl-5-oxotetrazol-1-yl)phenylamino)pyrimidine-5-carbonitrile] | 6.30 to 7.00
Cn1nnn(-c2cc(Nc3ncc(F)c(NC4CC5CCCN5C(C)(C)C4)n3)ccc2OC2COC2)c1=O (racemic) [Compound 38, 1-(5-(5-fluoro-4-(octahydro-5,5-dimethylindolizin-7-ylamino)pyrimidin-2-ylamino)-2-(oxetan-3-yloxy)phenyl)-4-methyl-1H-tetrazol-5(4H)-one] | 6.30 to 7.00
CC1(C)C[C@H](Nc2nc(Nc3ccc4c(c3)-n3nnnc3C(CO)(CO)O4)ncc2F)C[C@@H]2CCCN21 [Compound 125, (8-((4-(((7R,8aS)-5,5-dimethyloctahydroindolizin-7-yl)amino)-5-fluoropyrimidin-2-yl)amino)-4H-benzo[b]tetrazolo[1,5-d][1,4]oxazine-4,4-diyl)dimethanol] | 5.00 to 6.00
CC1(C)CC(Nc2nc(Nc3cc(-n4cnnn4)c(C4CC4)cc3F)ncc2F)CC2CCCN21 (single isomer, unassigned) [Compound 54, N^2-(4-cyclopropyl-2-fluoro-5-(1H-tetrazol-1-yl)phenyl)-5-fluoro-N^4-(octahydro-5,5-dimethylindolizin-7-yl)pyrimidine-2,4-diamine] | > 7.00
CC1(C)C[C@H](Nc2nc(Nc3ccc(N4CCC(O)CC4)c(C#N)c3)ncc2F)C[C@@H]2CCCN21 [Compound 107, 5-((4-(((7R,8aS)-5,5-dimethyloctahydroindolizin-7-yl)amino)-5-fluoropyrimidin-2-yl)amino)-2-(4-hydroxypiperidin-1-yl)benzonitrile] | 6.30 to 7.00
Cn1nnn(-c2cc(Nc3ncc(F)c(N[C@@H]4C[C@@H]5CCCN5C(C)(C)C4)n3)c(F)cc2C#N)c1=O [Compound 98, 4-(4-((7R,8aS)-octahydro-5,5-dimethylindolizin-7-ylamino)-5-fluoropyrimidin-2-ylamino)-5-fluoro-2-(4,5-dihydro-4-methyl-5-oxotetrazol-1-yl)benzonitrile] | 6.30 to 7.00
Cn1nnn(-c2cc(Nc3ncc(F)c(N[C@H]4C[C@@H]5C[C@@H](F)CN5C(C)(C)C4)n3)c(F)cc2C2CC2)c1=O [Compound 65, 1-(5-(4-((2R,7S,8aR)-2-fluoro-octahydro-5,5-dimethylindolizin-7-ylamino)-5-fluoropyrimidin-2-ylamino)-2-cyclopropyl-4-fluorophenyl)-4-methyl-1H-tetrazol-5(4H)-one] | 5.00 to 6.00
C=Cc1cc(F)c(Nc2ncc(F)c(N[C@@H]3C[C@@H]4CCCN4C(C)(C)C3)n2)cc1-n1nnn(C)c1=O [Compound 92, 1-(5-(4-((7R,8aS)-octahydro-5,5-dimethylindolizin-7-ylamino)-5-fluoropyrimidin-2-ylamino)-4-fluoro-2-vinylphenyl)-4-methyl-1H-tetrazol-5(4H)-one] | > 7.00
COc1cc(Nc2ncc(Cl)c(N[C@@H]3C[C@@H]4CCCN4C(C)(C)C3)n2)cc(-n2nnnc2C)c1 [Compound 152, 5-chloro-N4-((7R,8aS)-5,5-dimethyloctahydroindolizin-7-yl)-N2-(3-methoxy-5-(5-methyl-1H-tetrazol-1-yl)phenyl)pyrimidine-2,4-diamine] | > 7.00
Cn1nnn(-c2cc(Nc3ncc(F)c(N[C@@H]4C[C@@H]5C[C@@H](O)CN5C(C)(C)C4)n3)c(F)cc2C2CC2)c1=O [Compound 68, 1-(5-(4-((2R,7R,8aR)-2-hydroxy-octahydro-5,5-dimethylindolizin-7-ylamino)-5-fluoropyrimidin-2-ylamino)-2-cyclopropyl-4-fluorophenyl)-4-methyl-1H-tetrazol-5(4H)-one] | 6.30 to 7.00

Other lines, results leading:

pEC50 | SMILES
6.30 to 7.00 | COCCOc1cc(F)c(Nc2ncc(F)c(N[C@@H]3C[C@@H]4CCCN4C(C)(C)C3)n2)cc1-n1nnn(C)c1=O [Compound 158, 1-(5-((4-(((7R,8aS)-5,5-dimethyloctahydroindolizin-7-yl)amino)-5-fluoropyrimidin-2-yl)amino)-4-fluoro-2-(2-methoxyethoxy)phenyl)-4-methyl-1,4-dihydro-5H-tetrazol-5-one]
5.00 to 6.00 | COc1cc(Nc2ncc(F)c(N[C@@H]3C[C@@H]4CCCN4C(C)(C)C3)n2)ccc1O [Compound 208, 4-((4-(((7R,8aS)-5,5-dimethyloctahydroindolizin-7-yl)amino)-5-fluoropyrimidin-2-yl)amino)-2-methoxyphenol]
6.30 to 7.00 | CC1(C)C[C@H](Nc2nc(Nc3ccc(N4CC(O)C4)c(C(F)(F)F)c3)ncc2F)C[C@@H]2CCCN21 [Compound 326, 1-(4-(4-((7R,8aS)-octahydro-5,5-dimethylindolizin-7-ylamino)-5-fluoropyrimidin-2-ylamino)-2-(trifluoromethyl)phenyl)azetidin-3-ol]
> 7.00 | Cc1ccc(Nc2ncc(F)c(N[C@@H]3C[C@@H]4CCCN4C(C)(C)C3)n2)cc1-n1nnn(CC(C)(C)O)c1=O [Compound 289, 1-(5-(4-((7R,8aS)-octahydro-5,5-dimethylindolizin-7-ylamino)-5-fluoropyrimidin-2-ylamino)-2-methylphenyl)-4-(2-hydroxy-2-methylpropyl)-1H-tetrazol-5(4H)-one]
6.30 to 7.00 | CC1(C)CC[C@H]2C[C@@H](Nc3nc(Nc4ccc(OC5CC(O)C5)c(C#N)c4)ncc3F)CCN21 (some centres unmarked) [Compound 304]
5.00 to 6.00 | CN1C(=O)COc2ccc(Nc3ncc(F)c(N[C@@H]4C[C@@H]5CCCN5C(C)(C)C4)n3)cc21 [Compound 315]
> 7.00 | C[C@H](O)COc1cc(F)c(Nc2ncc(Cl)c(N[C@@H]3C[C@@H]4CCCN4C(C)(C)C3)n2)cc1-n1nnn(C)c1=O [Compound 235, 1-(5-((5-chloro-4-(((7R,8aS)-5,5-dimethyloctahydroindolizin-7-yl)amino)pyrimidin-2-yl)amino)-4-fluoro-2-((S)-2-hydroxypropoxy)phenyl)-4-methyl-1,4-dihydro-5H-tetrazol-5-one]
5.00 to 6.00 | Cn1nnn(-c2cc(Nc3ncc(F)c(N[C@@H]4C[C@@H]5CCCN5C(C)(C)C4)n3)c(F)cc2OCC2COCCO2)c1=O (stereo partly drawn) [Compound 169, 1-(2-((1,4-dioxan-2-yl)methoxy)-5-((4-(((7R,8aS)-5,5-dimethyloctahydroindolizin-7-yl)amino)-5-fluoropyrimidin-2-yl)amino)-4-fluorophenyl)-4-methyl-1,4-dihydro-5H-tetrazol-5-one]
> 7.00 | COCC1(COC)Oc2ccc(Nc3ncc(F)c(N[C@@H]4C[C@@H]5CCCN5C(C)(C)C4)n3)cc2-n2nnnc21 [Compound 316, N^2-(4,5-dihydro-4,4-bis(methoxymethyl)tetrazolo[5,1-c][1,4]benzoxazin-8-yl)-N^4-((7R,8aS)-octahydro-5,5-dimethylindolizin-7-yl)-5-fluoropyrimidin-2,4-diamine]
5.00 to 6.00 | COCCN1C(=O)C(C)(C)Oc2ccc(Nc3ncc(F)c(N[C@@H]4C[C@@H]5CCCN5C(C)(C)C4)n3)cc21 [Compound 319]
> 7.00 | CC1(C)C[C@H](Nc2nc(Nc3cccc(-n4nnnc4SC4COC4)c3)ncc2F)C[C@@H]2CCCN21 [Compound 262, 5-fluoro-N4-((7R,8aS)-octahydro-5,5-dimethylindolizin-7-yl)-N2-(3-(5-(oxetan-3-ylthio)-1H-tetrazol-1-yl)phenyl)pyrimidine-2,4-diamine]
> 7.00 | CC(O)COc1cc(F)c(Nc2ncc(Cl)c(N[C@@H]3C[C@@H]4CCCN4C(C)(C)C3)n2)cc1-n1nnn(C)c1=O (stereo partly drawn) [Compound 236, 1-(5-((5-chloro-4-(((7R,8aS)-5,5-dimethyloctahydroindolizin-7-yl)amino)pyrimidin-2-yl)amino)-4-fluoro-2-(2-hydroxypropoxy)phenyl)-4-methyl-1,4-dihydro-5H-tetrazol-5-one]

Same assay, conditions: human primary T cells stimulated with αCD3 and αCD28, 24 hours

pEC50 | SMILES
6.30 to 7.00 | CC(C)N1CCC(Oc2ccc(Nc3ncc(F)c(N[C@@H]4C[C@@H]5CCCN5C(C)(C)C4)n3)cc2OC(F)F)CC1 (single isomer, unassigned) [Compound 10, (R/S, S/R, R/R, S/S)-N^2-(4-(1-isopropylpiperidin-4-yloxy)-3-(difluoromethoxy)phenyl)-5-fluoro-N^4-(octahydro-5,5-dimethylindolizin-7-yl)pyrimidine-2,4-diamine]
6.30 to 7.00 | CC1(C)CC(Nc2nc(Nc3ccc(O[C@@H]4CCOC4)c(C#N)c3)ncc2F)CC2CCCN21 (single isomer, unassigned) [Compound 59]
5.00 to 6.00 | Cn1nnn(-c2cc(Nc3ncc(F)c(N[C@H]4CCN5[C@@H](CCC5(C)C)C4)n3)c(F)cc2C2CC2)c1=O (single isomer, unassigned) [Compound 37]
6.30 to 7.00 | Cc1ncc(Nc2ncc(F)c(NC3CC4CCCN4C(C)(C)C3)n2)cc1-n1nnnc1C (centres unmarked) [Compound 15]
5.00 to 6.00 | Cn1nnn(-c2cc(Nc3ncc(F)c(N[C@@H]4CCN5C(CCC5(C)C)C4)n3)c(F)cc2C2CC2)c1=O (mixture of isomers) [Compound 25]
